In US20260226079A1, “A STRATEGY FOR THE SELECTIVE REMOVAL OF MRI CONTRAST AGENTS” (Portland State University, priority 2023, published 2026):
Marks after values point to notes of the source that are not given here.

Key:
[1] = SPAAC selective interception of GdDO3A-azido monoamide chelate on DBCO-PS beads, Gd by ICP-MS; conditions: pH 7, 37° C.
Procedure: The GdDO3A-azido monoamide chelate and DBCO-PS beads shown in FIG. 15 were utilized in a similar experiment described previously. Due to the expensive DBCO starting material, the beads were generated on small scales. Accordingly, the scales of the experiments were reduced to 50 mg bead starting material and 0.5 equivalents of GBCA consistent with the loading capacity determined for each batch of DBCO-PS. All other conditions remained constant (1 mL reaction volume, 37° C., 1,000 rpm mixing at pH 7). Samples were prepared for ICP-MS analysis using the same method as previously described with fewer dilutions. The experiments were run with variable reaction times, matrix, and percentage DMSO.

[2] = 1H NMRD relaxivity profiles and parametric fitting (SBM / Lipari-Szabo); type: physicochemical; set-up: ^298D: unit not given here; conditions: for ^22r1 (298K), relaxivity: 20 MHz; for ^22r1 (298K), relaxivity / ER / Δ^2 / τRG, global rotational correlation time constant / τV: pH 7.0 (N3), pH 6.8 (DBCO); for EV / ^298D / a / q / r: fixed during fitting
Procedure: FIG. 19 is a plot illustrating the GdDO3A-DBCO monoamide ^1H NMRD profiles at 283 (blue, top line), 298 (black, middle line) and 310 K (red, lower line), measured at pH 6.8, and a Gd^3+ concentration of 1.32 mM.
FIG. 21 is a plot illustrating the GdDO3A-azido monoamide ^1H NMRD profiles at 283 (blue, top line), 298 (black, middle line) and 310 K (red, lower line), measured at pH 7.0.
(§1) Previous work by the inventors has shown that chelates functionalized with bulky aromatic groups have the propensity to self-associate in solution. […] The most common methods to determine the physico-chemical properties described by SBM theory are through fittings of experimental data obtained from the reduced ^17O transverse relaxation rate, R2p, as a function of temperature and relaxivity, ri, as a function of proton Larmor frequency i.e. nuclear magnetic resonance dispersion (NMRD) profiles.
The NMRD profiles of GBCAs are used to characterize several important physico-chemical parameters described by SBM theory. The most influential parameter which affects the shape of an NMRD curve is the rotational correlation time constant (τR) of the complex. Macromolecular species which tumble slowly impart a positive impact on relaxivity at all fields, but particularly at high fields presented as a characteristic “hump” in the 10-60 MHz region, distinct from quickly tumbling chelates in which relaxivity continues to decrease with increasing field strength. The molecular weight of the GdDO3A-DBCO monoamide would not be considered a large macromolecular structure; any indication of a slowly tumbling complex would be indicative of an aggregate species which we hypothesized as the self-associating chelate. As shown below in FIG. 19, relaxivity is quite high in low field regions where electronic spin relaxation contributes, followed by a characteristic dispersion around 1 MHz when the contribution drops off. There is a “hump” around 20 MHz which is indicative of a slowly tumbling species, consistent with a self-associating chelate. This macromolecular structure is the source of a rather high relaxivity of 7.1 mM^−1s^−1 (20 MHz, pH 6.8, 298 K) in comparison to most clinical agents which remain in the 4 mM^−1 s^−1-5 mM^−1s^−1 range.
The global and local rotational correlation time constants were 375 ps and 107 ps, respectively. […] This further corroborated the presence of a self-association which led to a decrease in the efficiency observed in selective interception trials.
The dispersion at 1-10 MHz corresponded to a typical drop-off of the electronic spin relaxation contribution, followed by continued decrease in relaxivity with increasing field strength. There was no evidence of a slowly tumbling structure which was reflected in a standard parametric fitting procedure with one discrete rotational contribution.

[3] = Temperature-dependent 17O R2p transverse relaxation rate (67.8 MHz, 11.74 T) and fitting; type: physicochemical; conditions: for τM, water residence lifetime / AO/h / Δ HM: fitted; for τM, water residence lifetime: pH 7.0 (GdDO3A-N3-monoamide), pH 6.8 (GdDO3A-DBCO-monoamide); for AO/h / Δ HM: pH 7.0 (N3), pH 6.8 (DBCO)
Procedure: FIG. 18 is a plot illustrating the GdDO3A-DBCO monoamide temperature-dependent R2p relaxation rate of ^17O measured at 67.8 MHz (11.74 T) pH 6.8, and a Gd^3+ concentration of 6.5 mM.
FIG. 20 is a plot illustrating the GdDO3A-azido monoamide temperature-dependent R2p relaxation rate of ^17O measured at 67.8 MHz (11.74 T) pH 7.0, and a Gd^3+ concentration of 8.5 mM.
as §1
Analysis of the reduced transverse relaxation rate constant of ^17O (R2p) as a function of temperature is the most common experimental technique to determine water residence lifetime, τM. The function typically resembles a bell curve where the inflection point temperature is an indicator of water exchange kinetics. The experiments were performed at a pH of 6.8 and a Gd^3+ concentration of 6.5 mM. Precipitation was observed below 295 K. The ^17O curve reached an inflection point at about 310 K, and the fitted value of τM was 545 ns, comparatively slow in the context of achieving high relaxivities but fast enough that exchange is in the fast exchange regime and rl is sensitive to changes in molecular tumbling, […].
Unsurprisingly, the shape is nearly identical to the DBCO-containing counterpart; both are monoamides and a similar water exchange rate would be expected. In this case, the water residence lifetime time constant (τM) was equivalent to the DBCO ligand at 545 ns.

[4] = SPAAC selective interception of GdDO3A-DBCO monoamide chelate on azide terminated PS beads, Gd in supernatant by ICP-MS; conditions: for % Gd Remaining: 50° C., 1,000 rpm, 24 hours
Procedure: To address potential stability issues associated with the GdTTHA-Alkyne and azide-PS beads system, tri-acetate mono-amide chelate systems were tested, that may experience fewer experimental difficulties. The initial SPAAC reactions were carried out with GdDO3A-DBCO monoamide chelate and azide terminated bead (FIG. 13). The Gd^3+ concentration was temporally monitored in the supernatant to gain a sense of reaction kinetics and optimal reaction times. To avoid mechanical stirring, a temperature-controlled thermomixer was used which mixed through agitation and was capable of batch testing. And the reaction was analyzed by ICP-MS.
All experiments were performed on a 100 mg bead scale with 0.5 equivalents of GdDO3A-DBCO monoamide chelate in water (1 mL) agitated at 1,000 rpm and 50° C. […] were selected: 3 minutes, 3 hours, 6 hours, 9 hours and 24 hours. The reactions were stopped at their respective time point, the sample was centrifuged and the supernatant was decanted and filtered. The beads were washed and centrifuged three times before the filtered supernatant was freeze dried and digested in HNO3 for ICP-MS analysis.
The effect of pH at relevant pH ranges of urine (~4.5-8) on the efficiency of Gd removal was investigated. Additionally, the role of an organic cosolvent was investigated to determine whether the aqueous medium is a limiting factor in efficiency. A pH range of 5-9 was tested with 1:1 v:v DMSO:H2O at 50° C. stirring at 1,000 rpm for 24 hours. The reaction mixtures were centrifuged, and the supernatant was decanted and filtered. The beads were washed and centrifuged in triplicate and the supernatants were freeze dried and digested for ICP-MS analysis, data summarized below in Table 1.
A multivariate approach was designed to establish the interaction between various levels of cosolvent volume, reaction time and temperature. The volume of DMSO was lowered with the hope of identifying other contributing factors that would lead to an enhanced outcome using a minimal amount of organic cosolvent. Additionally, the temperature ranged from 25° C. to 50° C. and the reaction time was assessed over 0.5 hours and 24 hours, and at pH 7. The scale of the beads and GdDO3A-DBCO monoamide chelate remained the same as previous trials at a 100 mg scale with 0.5 equivalents of GBCA while mixing at 1,000 rpm. The beads were centrifuged, washed, and digested in nitric acid for ICP-MS analysis using the methods described previously, results summarized below in Table 2.
Following the suboptimal results from previous trials with a smaller volume of DMSO cosolvent, the range of added cosolvent was increased to 50% v:v. Additionally, a simulated urine matrix, Surine™, was added to test if there were any significant effects from any urine constituents on the reaction efficiency. The experiments were run with variable reaction times, matrix and percentage DMSO at pH 7 and 37° C.

[5] = 20 MHz and 298 K, comparison value; cited from earlier work
[6] = fitted, Lipari-Szabo approach, pH 6.8

## [Gd+3].[N-]=[N+]=NCCCNC(=O)CN1CCN(CC(=O)[O-])CCN(CC(=O)[O-])CCN(CC(=O)[O-])CC1 [GdDO3A-azido monoamide]
[1]; Entry 1: 0.5 hr, Water, 0% DMSO
  Gd Remaining (%): 39%
[1]; Entry 2: 0.5 hr, Water, 50% DMSO
  Gd Remaining (%): 36%
[1]; Entry 3: 8 hr, Water, 0% DMSO
  Gd Remaining (%): 40%
[1]; Entry 4: 8 hr, Water, 50% DMSO
  Gd Remaining (%): 35%
[1]; Entry 5: 0.5 hr, Surine, 0% DMSO
  Gd Remaining (%): 27%
[1]; Entry 6: 0.5 hr, Surine, 50% DMSO
  Gd Remaining (%): 37%
[1]; Entry 7: 8 hr, Surine, 0% DMSO
  Gd Remaining (%): 39%
[1]; Entry 8: 8 hr, Surine, 50% DMSO
  Gd Remaining (%): 38%
[2]
  ^22r1 (298K), relaxivity: 4.7 mM⁻¹ s⁻¹
  EV: 1.0^a kJ mol^−1
  ^298D: 2.24
  a: 4.0^a Å
  q: 1^a
  r: 3.0^a Å
[2]; fitted
  ER: 4.28 kcal/mol
  Δ^2: 5.7 10^19 s^−2
  τRG, global rotational correlation time constant: 70 ps
  τV: 8.4 ps
[3]
  τM, water residence lifetime: 545 ns
  AO/h: −3.2 10^6 rad s^−1
  Δ HM: 11 kcal/mol

## O=C([O-])CN1CCN(CC(=O)[O-])CCN(CC(=O)NCCC(=O)N2Cc3ccccc3C#Cc3ccccc32)CCN(CC(=O)[O-])CC1.[Gd+3] [GdDO3A-DBCO monoamide]
[2]
  ^22r1 (298K), relaxivity: 7.1 mM⁻¹ s⁻¹
  EV: 1.0^a kJ mol^−1
  ^298D: 2.24
  a: 4.0^a Å
  q: 1^a
  r: 3.0^a Å
[2]; Lipari-Szabo fitting
  aggregate rotates more slowly than the discrete chelate (global vs local rotation), fold: over 3 ×
[2]; [6]
  S^□: 0.36
  τRL, local rotational correlation time constant: 107 ps
[2]; fitted
  ER: 4.78 kcal/mol
  Δ^2: 3.5 10^19 s^−2
  τRG, global rotational correlation time constant: 375 ps
  τV: 13 ps
[3]
  τM, water residence lifetime: 545 ns
  AO/h: −3.0 10^6 rad s^−1
  Δ HM: 11 kcal/mol
[3]; pH 6.8, Gd^3+ 6.5 mM
  inflection point of 17O R2p curve: about 310 K
  temperature below which precipitation was observed: below 295 K
[4]; Entry 1: 0.5 hr, Water, 0% DMSO, pH 7, 37° C.
  Gd Remaining (%): 27%
[4]; Entry 1: cosolvent 0 μL, 25 °C, 0.5 hr, pH 7
  Gd Remaining (%): 71%
[4]; Entry 2: 0.5 hr, Water, 50% DMSO, pH 7, 37° C.
  Gd Remaining (%): 28%
[4]; Entry 2: cosolvent 0 μL, 25 °C, 24 hr, pH 7
  Gd Remaining (%): 70%
[4]; Entry 3: 8 hr, Water, 0% DMSO, pH 7, 37° C.
  Gd Remaining (%): 27%
[4]; Entry 3: cosolvent 100 μL, 25 °C, 0.5 hr, pH 7
  Gd Remaining (%): 68%
[4]; Entry 4: 8 hr, Water, 50% DMSO, pH 7, 37° C.
  Gd Remaining (%): 18%
[4]; Entry 4: cosolvent 100 μL, 25 °C, 24 hr, pH 7
  Gd Remaining (%): 69%
[4]; Entry 5: 0.5 hr, Surine, 0% DMSO, pH 7, 37° C.
  Gd Remaining (%): 28%
[4]; Entry 5: cosolvent 0 μL, 50 °C, 0.5 hr, pH 7
  Gd Remaining (%): 67%
[4]; Entry 6: 0.5 hr, Surine, 50% DMSO, pH 7, 37° C.
  Gd Remaining (%): 29%
[4]; Entry 6: cosolvent 0 μL, 50 °C, 24 hr, pH 7
  Gd Remaining (%): 65%
[4]; Entry 7: 8 hr, Surine, 0% DMSO, pH 7, 37° C.
  Gd Remaining (%): 30%
[4]; Entry 7: cosolvent 100 μL, 50 °C, 0.5 hr, pH 7
  Gd Remaining (%): 69%
[4]; Entry 8: 8 hr, Surine, 50% DMSO, pH 7, 37° C.
  Gd Remaining (%): 20%
[4]; Entry 8: cosolvent 100 μL, 50 °C, 24 hr, pH 7
  Gd Remaining (%): 67%
[4]; extrapolated from integrated second order rate law, FIG. 14
  second order rate constant of interception reaction: 48.4 M⁻¹ s⁻¹
[4]; pH 5, 1:1 v:v DMSO:H2O
  % Gd Remaining: 1.64%
[4]; pH 7, 1:1 v:v DMSO:H2O
  % Gd Remaining: 2%
[4]; pH 9, 1:1 v:v DMSO:H2O
  % Gd Remaining: 1.6%

## O=C([O-])CN1CCN(CC(=O)[O-])CCN(CC(=O)O)CCN(CC(=O)[O-])CC1.[Gd+3] [GdDOTA]
[5]
  relaxivity: 4.5 mM⁻¹ s⁻¹
